Reference: EP3122315B1, “ACTIVE-INGREDIENT COMBINATIONS CONSISTING OF 4-HYDROXYACETOPHENONE AND ONE OR MORE GLYCERIN AND/OR OLIGOGLYCERIN ESTERS OF BRANCHED CHAINS AND/OR UNBRANCHED CHAINS OF ALKANE CARBOXYLIC ACIDS, AND COSMETIC OR DERMATOLOGICAL PREPARATIONS CONTAINING SAID ACTIVE-INGREDIENT COMBINATIONS” (Symrise AG, priority 2014, dated 2015)
Like-named read-outs stand apart in the source and are kept apart here.

Test: Solubility tests of 4-hydroxyacetophenone in cosmetic oil with or without glycerol ester additive
Settings: for Löslichkeit "HAP" bei 35 °C / Löslichkeit "HAP" bei RT: solvent C12-15 Alkylbenzoate; for Löslichkeit "HAP" bei RT: room temperature (ca. 20 °C)
Method: Die Durchführung der Löslichkeitsversuche erfolgte bei 2 verschiedenen Temperaturen: Bei Raumtemperatur (ca. 20 °C) und bei 35 °C.
Das weiße, kristalline 4-Hydroxyacetophenon ("4-HAP") wurde in kleinen Portionen langsam (über mehrere Stunden) zum jeweiligen Lösungsmittel unter Rühren hinzugegeben, bis sich kein weiteres Material mehr lösen ließ. Hier war die Löslichkeitsgrenze erreicht. Nicht gelöstes Material war deutlich als milchiger Niederschlag oder einzelne Kristalle erkennbar. Das Additiv (der jeweilige Glycerinester) wurde ebenfalls in kleinen Portionen hinzugegeben.
Die Experimente bei 35°C wurden im Wasserbad durchgeführt. Die Temperatur wurde per Temperatursonde, welche mit dem Heizrührer verbunden war, konstant gehalten. Die Experimente wurden in verschraubten 15 ml Gläsern durchgeführt, um ein Verdampfen des Lösungsmittels zu verhindern. Die Löslichkeit wurde 12-24 Stunden nach der letzten Substanzzugabe gemessen, so dass sich das System equilibrieren konnte. […] Die Löslichkeitsversuche wurden in dem bekannten kosmetischen Öl "C12-15 Alkylbenzoate", erhältlich unter anderem unter dem Handelsnamen Tegesoft® TN B von der Firma Evonik, durchgeführt. Die Ergebnisse sind in Tabelle 1 wiedergegeben: Tabelle 1

## CCCCCCCC(=O)OCC(O)CO (centres unmarked) [Glycerylcaprylat]
  Löslichkeit des Glycerylesters im verwendeten Lösungsmittel (kosmetischen öl): vollständig

## CCCCCCCCCCCCCCCCCC(=O)OCC(O)CO (centres unmarked) [Glycerylstearate, reference compound]
Known emulsifier used as additive, concentration not given
  Einfluss auf die Löslichkeit von 4-Hydroxyacetophenon: keinen Einfluss

## CC(=O)c1ccc(O)cc1 [HAP, 4-Hydroxyacetophenon]
Concentration at which undissolved crystals were seen, no glycerol ester, C12-15 Alkylbenzoate, 35 °C
  Kristalle mit (Löslichkeit "HAP" bei 35 °C): 3%
Concentration at which undissolved crystals were seen, no glycerol ester, C12-15 Alkylbenzoate, room temperature
  Kristalle bei (Löslichkeit "HAP" bei RT): 2,25%
No glycerol ester (Ohne), 35 °C water bath
  Löslichkeit "HAP" bei 35 °C: 2,5%
No glycerol ester (Ohne), read 12-24 h after last addition
  Löslichkeit "HAP" bei RT: 2%
With 0,5 % Polyglyceryl-2-caprat
  Löslichkeit "HAP" bei RT: 2,25 % gelöst
With 1 % Glycerylcaprylat, 35 °C
  Löslichkeit "HAP" bei 35 °C: 3 % gelöst (Steigerung im Vergleich zu 2,5 % ohne Ester
With 1 % Glycerylcaprylat
  Löslichkeit "HAP" bei RT: 2,25 % gelöst
With 1 % Polyglyceryl-2-caprat, 35 °C
  Löslichkeit "HAP" bei 35 °C: 3 % gelöst (Steigerung im Vergleich zu 2,5 % ohne Ester)
With 1 % Polyglyceryl-2-caprat
  Löslichkeit "HAP" bei RT: < 2,25 % nicht vollständig gelöst

## Glycerylstearatcitrate [reference compound]
  Einfluss auf die Löslichkeit von 4-Hydroxyacetophenon: keinen Einfluss

## Polyglyceryl-2-caprat
1 % of the ester in C12-15 Alkylbenzoate, 35°C
  Löslichkeit des Glycerylesters im verwendeten Lösungsmittel (kosmetischen öl): vollständig
1 % of the ester in C12-15 Alkylbenzoate, RT
  Löslichkeit des Glycerylesters im verwendeten Lösungsmittel (kosmetischen öl): vollständig
